According to patent US8889379B2, “Biocatalytic production of glycosides” (Universiteit Gent, priority 2010, dated 2014):
Entries after “also recorded” stand apart in the source; their conditions may differ.

B1: CsCDP: recombinant cellodextrin phosphorylase from Clostridium stercorarium DSM8532, Genbank U60580 (protein, listed as Clostridium stercorarium)
chain: MRYGYFDEKAREYVITRPDTPTPWINYIGNGKYGGIVTNTGGGYSFHKDPQNRRITRYRYNNLPTDRPGRYIYVRDRLTGEYWNPGYQPVQRKLDSYRCRHGMGYTVLEGEYKGIAADVTYFVPDDRDFEIWLVQIRNLCHVERNLQVFSYAEFCFWDAIMDQQNVDWVQQINQGRYEDRLITWHPHHFKDACAFFATNAEINSFDTNLEAFIGRYRCESNPIAVETGACSNSVSYRMNGVGAFCIDVNLKPGEEREIIFILGFTENKSTIRDEIRDYLNVEYAKEALKRLKDSWEEYLDKLQIETPDRETNLFVNTWNQYQCKITFNWSRFVSMYSWGLGRGIGIRDSAQDTLGVMHSIPELAGGLIKRLIHCQYTDGRVYHLFFPLTGEGGIGDAPVVKFDWYSDDHLWLPIAANAYLKETANFDFFQSVVPYNDNKTEGTVWEHLNRAMEFTYNHRGPHALPYSRADWNDTLNLDMGNGIAETLFTSMLFSEPPLKRFRCRISDKRIATKYRYWYDEMKQAINEWCWDGEWYIRAFDDEGNVLGSGKNRYGKIFINSQSWAVLSMVAPEEYAKKCLESVYRHLNTKYGIVKVYPAYPEYNPKIGGMTTYPPGAKENGGIFAHTNPWVMIAECMMGNGRRAYQYYRQILPLTRNDDADLLEVEPYVYCQNILGKEHPQFGIGRNSWLTGTAAWNMVAVSQYILGIRPEYDGLTVDPCIPPDWKGFKVRRIFRGCVYNIEVRNPEGVRRCEKNCRRGVETDKIPVKPAGTVCECVVIMG
B2: cellodextrin phosphorylase from Clostridium stercorarium (CsCDP) (Thermoclostridium stercorarium subsp. stercorarium DSM 8532) (protein)
chain: MRYGYFDEKAREYVITRPDTPTPWINYIGNGKYGGIVTNTGGGYSFHKDPQNRRITRYRYNNLPTDRPGRYIYVRDRLTGEYWNPGYQPVQRKLDSYRCRHGMGYTVLEGEYKGIAADVTYFVPDDRDFEIWLVQIRNLCHVERNLQVFSYAEFCFWDAIMDQQNVDWVQQINQGRYEDRLITWHPHHFKDACAFFATNAEINSFDTNLEAFIGRYRCESNPIAVETGACSNSVSYRMNGVGAFCIDVNLKPGEEREIIFILGFTENKSTIRDEIRDYLNVEYAKEALKRLKDSWEEYLDKLQIETPDRETNLFVNTWNQYQCKITFNWSRFVSMYQLGLGRGIGIRDSAQDTLGVMHSIPELAGGLIKRLIHCQYTDGRVYHLFFPLTGEGGIGDAPVVKFDWYSDDHLWLPIAANAYLKETANFDFLESVVPYNDNKTEGTVWEHLNRAMEFTYNHRGPHGLALIGRADWNDTLNLDMGNGIAESVFTSMLFCRAALEMIQMAEYTGQKDLATKYRYWYDEMKKAINEWCWDGEWYIRAFDDEGNVLGSGKNRYGKIFINSQSWAVLSMVAPEEYAKKCLESVYRHLNTKYGIVKVYPAYPEYNPKIGGMTTYPPGAKENGGIFAHTNPWVMIAECMMGNGRRAYQYYRQILPLTRNDDADLLEVEPYVYCQNILGKEHPQFGIGRNSWLTGTAAWNMVAVSQYILGIRPEYDGLTVDPCIPPDWKGFKVRRIFRGCVYNIEVRNPEGVSRGVKKIVVDGVETDKIPVKPAGTVCECVVIMG

Key:
[1] = molecular target: T1, cellodextrin phosphorylase from Clostridium stercorarium (CsCDP) (Thermoclostridium stercorarium, UniProt L7VUB7); assay: CsCDP activity assay (orthophosphate release, synthetic direction); format: biochemical; conditions: for Specific activity (U/mg): acceptor specificity, 30 mM Glc1P donor; for Specific activity (U/mg) / Relative activity (%): 50 mM MES buffer pH 6.5, 50 mM of acceptor; for Relative activity (%): relative to cellobiose
Description: (§1) Protein concentrations were measured with the BCA Protein Assay kit from Thermo Scientific. The activity assays were performed with 5% of purified enzyme (50 μg/mL, final concentration) in 50 mM MES buffer pH 6.5, containing 30 mM donor (Glc1P) or 100 mM donor (Gal1P) and 50 mM acceptor at 45° C. Samples were inactivated for 5 minutes at 95° C. before the amount of orthophosphate (Pi) was measured by the method of Gawronski and Benson, 2004. The Km and kcat values in the kinetic study were calculated from a Hanes-Woolf plot.

[2] = molecular target: T1, cellodextrin phosphorylase from Clostridium stercorarium (CsCDP); assay: Kinetic study of the synthetic reaction of CsCDP (Hanes-Woolf plot); format: biochemical; conditions: donor substrate instead of Glc1P
Description: as §1

[3] = molecular target: T1, cellodextrin phosphorylase from Clostridium stercorarium (CsCDP); assay: CsCDP activity assay (orthophosphate release, synthetic direction); format: biochemical; conditions: 20 mM of acceptor, 45° C. and pH 6.5
[4] = substrate: O=P(O)(O)O[C@H]1O[C@H](CO)[C@H](O)[C@H](O)[C@H]1O; assay: Kinetic study of the synthetic reaction of CsCDP (Hanes-Woolf plot); format: biochemical, Clostridium stercorarium; conditions: other: synthetic reaction, 50 mM MES buffer pH 6.5 at 45° C.
[5] = substrate: O=P(O)(O)O[C@H]1O[C@H](CO)[C@@H](O)[C@H](O)[C@H]1O; assay: as above; format: biochemical, Clostridium stercorarium; conditions: other: synthetic reaction, 50 mM MES buffer pH 6.5 at 45° C.
[6] = substrate: CCCCCCCCO[C@@H]1O[C@H](CO)[C@@H](O)[C@H](O)[C@H]1O; assay: as above; format: biochemical, Clostridium stercorarium; conditions: other: synthetic reaction, 50 mM MES buffer pH 6.5 at 45° C.
[7] = substrate: O=[N+]([O-])c1ccc(O[C@@H]2O[C@H](CO)[C@@H](O)[C@H](O)[C@H]2O)cc1; assay: as above; format: biochemical, Clostridium stercorarium; conditions: other: synthetic reaction, 50 mM MES buffer pH 6.5 at 45° C.

Row | Molecule | activity of CsCDP towards the substrate (in words) [1] | Specific activity (U/mg) ([1]; 45° C.) | Relative activity (%) ([1]; 45° C.) | other results
1 | OC[C@H]1O[C@H](O[C@H]2[C@H](O)[C@@H](O)C(O)O[C@@H]2CO)[C@H](O)[C@@H](O)[C@@H]1O (mixture of isomers) [Maltose] | very poor acceptors | 0.7 U/mg | 3% | –
2 | O=P(O)(O)O[C@H]1O[C@H](CO)[C@H](O)[C@H](O)[C@H]1O [Gal1P, α-galactose-1-phosphate] | active | – | – | efficiency on Gal1P as donor, times lower than on Glc1P [2]: about one thousand
3 | CCCCCCO[C@@H]1O[C@H](CO)[C@@H](O)[C@H](O)[C@H]1O [Hexyl β-glucoside] | – | 19.9 U/mg | 89% | –
4 | CO[C@@H]1O[C@H](CO)[C@@H](O)[C@H](O)[C@H]1O [Methyl β-glucoside] | – | 3.5 U/mg | 16% | –
5 | CCCCCCCCO[C@@H]1O[C@H](CO)[C@@H](O)[C@H](O)[C@H]1O [Octyl β-glucoside] | – | 20.4 U/mg | 91% | –
6 | O=[N+]([O-])c1ccc(O[C@@H]2O[C@H](CO)[C@@H](O[C@@H]3O[C@H](CO)[C@@H](O)[C@H](O)[C@H]3O)[C@H](O)[C@H]2O)cc1 [PNP β-cellobioside] | – | 29.0 U/mg | 129% | –
7 | O=[N+]([O-])c1ccc(O[C@@H]2O[C@H](CO)[C@@H](O)[C@H](O)[C@H]2O)cc1 [PNP β-glucoside, p-nitrophenyl beta-glucoside] | – | 24.7 U/mg | 110% | –
8 | O=[N+]([O-])c1ccc(O[C@@H]2OC[C@@H](O)[C@H](O)[C@H]2O)cc1 [PNP β-xyloside] | – | 7.5 U/mg | 33% | –
9 | OC[C@H]1O[C@@](CO)(O[C@H]2O[C@H](CO)[C@@H](O)[C@H](O)[C@H]2O)[C@@H](O)[C@@H]1O [Sucrose] | very poor acceptors | 0.7 U/mg | 3% | –
10 | Lactose | absolutely no activity could be detected; also recorded: inactive | – | – | –
11 | cellobiose | – | 22.4 U/mg | 100% | Activity (%) relative to the activity on cellobiose ([3]; donor 30 mM Glc1P): 100%
12 | oleoyl β-glucoside | better acceptors for CDP than cellobiose | 29.3 U/mg | 131% | Activity (%) relative to the activity on cellobiose ([3]; donor 30 mM Glc1P): 126%; Activity (%) relative to the activity on cellobiose ([3]; donor 100 mM Gal1P): 11%
13 | oleoyl β-sophoroside [Sophorolipid] | – | – | – | activity as fraction of that on cellobiose ([1]; Table 4): about one third; Activity (%) relative to the activity on cellobiose ([3]; donor 30 mM Glc1P): 36%
14 | B1 | – | – | – | optimal temperature for activity in the direction of glycoside synthesis ([1]; 50 mM cellobiose, 30 mM Glc1P, 50 mM MES buffer pH 6.5): ~65 °C; optimal pH for activity in the direction of glycoside synthesis ([1]; 50 mM cellobiose, 30 mM Glc1P, 50 mM MES buffer, 45° C.): around 6.5; specific activity of the purified enzyme ([1]; His6-tagged purified CsCDP, cellobiose acceptor): 22.4 U/mg
15 | B2 | – | – | – | Km [4]: 31130 ± 683 µM; kcat [4]: 2.5 ± 0.1 s⁻¹; kcat/Km [4]: 100 M⁻¹ s⁻¹; Km [5]: 2438 ± 16 µM; kcat [5]: 27.4 ± 1.7 s⁻¹; kcat/Km [5]: 10000 M⁻¹ s⁻¹; Km [6]: 623 ± 26 µM; kcat [6]: 14.2 ± 0.5 s⁻¹; kcat/Km [6]: 20000 M⁻¹ s⁻¹; Km [7]: 640 ± 38 µM; kcat [7]: 19.6 ± 1 s⁻¹; kcat/Km [7]: 30000 M⁻¹ s⁻¹
